{
  "source": "patent US20090042993A1",
  "about": "“IDENTIFICATION OF NOVEL POST-TRANSLATIONAL PROTEIN MODIFICATIONS” (priority 2007, published 2009)",
  "key": {"BACE1 [1]": {"tested_on": "BACE1", "assay": "BACE1 steady-state levels by Western blot in stably transfected CHO cells", "type": "cell-based, human", "procedure": "(§1) Chinese Hamster Ovary (CHO) cells were grown in DMEM (Gibco BRL—Invitrogen, Carlsbad, Calif.) supplemented with 10% fetal bovine serum (FBS) and penicillin/streptomycin (Mediatech, Inc., Herndon, Va.) as described before (Puglielli et al., 2001, Nat. Cell Biol. 3: 905-912; Puglielli et al., 2003, J. Biol. Chem. 278: 19777-19783; Costantini et al., 2005, Biochem. J. 391: 59-67; Costantini et al., 2006, EMBO J. 25: 1997-2006). Cells were maintained in a humidified atmosphere with 5% CO2. For ceramide treatment, C6-ceramide (also simply called ceramide herein) was administered at the final concentration of 10 μM; treatment was started when cells were ˜30% confluent and carried out for 4 days, unless specified otherwise. Treatment with proteasome inhibitors MG-132 (5 μM) and lactacystin (10 μM) was done for 10 hours, as described earlier (Qing et al., 2004, FASEB J. 18: 1571-1573).\nCell lysates were prepared in GTIP buffer (100 mM Tris-pH 7.6, 20 mM EDTA, 1.5 M NaCl) with 1% Triton X-100 (Roche, Basel, Switzerland), 0.25% NP40 (Roche), and a protease inhibitor cocktail (Roche) as described before (Puglielli et al., 2003, J. Biol. Chem. 278: 19777-19783; Costantini et al., 2005, Biochem. J. 391: 59-67). Briefly, cell monolayers were washed twice in PBS, scraped, transferred into eppendorf tubes, and centrifuged at 8,000 rpm for 5 min in a table-top centrifuge. Cell pellets were then lysed in ice for 30 min with the buffer indicated above, and centrifuged again at 14,000 rpm prior to the recollection of the protein extracts. Proteins were quantitated with the BCA Protein Assay (Pierce, Rockford, Ill.) following the manufacturer's instructions.\n(§2) For the immunoprecipitation of BACE1, cell lysates were pre-cleared with BioMag Protein A (Polysciences, Inc., Warrington, Pa.); beads were used at the concentration of 15 μl of the slurry per sample and separated with a magnetic holder. BACE1 was then immunoprecipitated with anti-BACE1 antibodies overnight and recovered with BioMag Protein A as above. The immunoprecipitate-bead complexes were washed 3 times in PBS and boiled for 10 min in SDS sample buffer (Invitrogen) with β-mercaptoethanol. Beads were then separated and the samples were analyzed by reducing SDS-PAGE.\nWestern blotting was performed on 10% Bis-Tris, 4-12% Bis-Tris, or 7% Tris-Acetate SDS-PAGE systems (NuPAGE; Invitrogen) as described (Puglielli et al., 2001, Nat. Cell Biol. 3: 905-912; Puglielli et al., 2003, J. Biol. Chem. 278: 19777-19783; Costantini et al., 2005, Biochem. J. 391: 59-67; Costantini et al., 2006, EMBO J. 25: 1997-2006). The following antibodies were used: anti-BACE1 N-terminal (monoclonal antibody; R&D Systems, Minneapolis, Minn.); anti-BACE1 C-terminal (polyclonal antibody; Abcam, Cambridge, Mass.); anti-pro-BACE1 (polyclonal; Abcam); anti-acetylated lysine (monoclonal; Abcam); anti-calreticulin (ER marker, polyclonal; Abcam); anti-58 K Golgi/formiminotransferase cyclodeaminase (Golgi marker, polyclonal; Abcam); anti-syntaxin (Golgi marker, monoclonal; Abcam); anti-EEA1 (endosomes, monoclonal; BD Transduction Laboratories, Lexington, Ky.); anti-actin (polyclonal; Cell Signaling, Danvers, Mass.). Secondary antibodies (Amersham) were used at a 1:6000 dilution. Binding was detected by chemiluminescence (LumiGLO kit; KPL, Gaithersburg, Md.). Only a representative blot of at least three different experiments is shown throughout the paper.\nFIG. 1 illustrates how BACE1 is transiently acetylated in the lumen of the ER. For this experiment, CHO cells expressing human BACE1 were treated with C6-ceramide (also simply called ceramide herein) for different periods of time. BACE1 was then immunoprecipitated and analyzed by Western blotting. FIG. 1(A): CHO cells stably expressing BACE1 were treated with ceramide for the indicated time. BACE1 was immunoprecipitated from total cell lysates, separated on a 7% Tris-Acetate NuPAGE system, and then analyzed by Western blot using either anti-BACE1 or anti-acetylated lysine antibodies. […]"}, "BACE1 [2]": {"tested_on": "BACE1", "assay": "BACE1 lysine acetylation (immunoprecipitation, anti-acetylated lysine blot, LC-MS/MS mapping) in CHO cells", "type": "cell-based, human", "procedure": "as §1, §2\nBACE1-myc was purified via affinity chromatography on a ProFound c-Myc-Tag IP/Co-IP kit (Pierce). Each BACE1 preparation was then precipitated by addition of 4 volumes of acetone, pelletted by centrifugation, washed, and vacuum-dried. […]\nA portion of each purified digest, corresponding to 10 μg of pre-digested protein, was analyzed by μLC-MS/MS using a Micromass Q-TOF2 spectrometer to locate acetylation sites. […] Charge dependent collision energy profiles were empirically pre-determined. […]"}, "[3]": {"conditions": "CHO cells stably expressing BACE1Ala grown with ceramide"}},
  "data": [
    {"molecule": "CCCCCCCCCCCCC/C=C/[C@@H](O)[C@H](CO)NC(=O)CCCCC", "note": "[ceramide, C6-ceramide]", "values": [
      {"measurement": "steady-state levels of immature and mature BACE1", "setting": "BACE1 [1]; CHO cells expressing human BACE1, ceramide 10 μM, apparent plateau at day 4", "result": "progressive increase in the steady-state levels"},
      {"measurement": "steady-state levels of BACE1Ala", "setting": "BACE1 [1]; [3]", "result": "not affected"},
      {"measurement": "acetylation of BACE1Ala in vivo", "setting": "BACE1 [2]; [3]", "result": "did not induce acetylation"},
      {"measurement": "number of acetylated lysine residues of BACE1", "setting": "BACE1 [2]; MS/MS of tryptic digests, two residues acetylated prior to ceramide treatment", "result": "increased to seven"},
      {"measurement": "BACE1 acetylation", "setting": "BACE1 [2]; ceramide treatment of cells", "result": "stimulates BACE1 acetylation"}
    ]}
  ]
}
